Molecules are shown by their SMILES. A value given as a limit tells only on which side of the number the result lay.

This is an account of results in patent US11111249B2, “Heteroaryl-pyrazole derivative, and preparation method therefor and medical application thereof” (Jiangsu Hengrui Medicine Co., Ltd., priority 2017, dated 2021).

The target in one assay is T1, human TLR7 (Homo sapiens, UniProt Q9NYK1).
T1 construct: host or cells: HEK-Blue hTLR7 (HEK293-derived) stably transfected cells
T1 sequence (Q9NYK1 27-1049): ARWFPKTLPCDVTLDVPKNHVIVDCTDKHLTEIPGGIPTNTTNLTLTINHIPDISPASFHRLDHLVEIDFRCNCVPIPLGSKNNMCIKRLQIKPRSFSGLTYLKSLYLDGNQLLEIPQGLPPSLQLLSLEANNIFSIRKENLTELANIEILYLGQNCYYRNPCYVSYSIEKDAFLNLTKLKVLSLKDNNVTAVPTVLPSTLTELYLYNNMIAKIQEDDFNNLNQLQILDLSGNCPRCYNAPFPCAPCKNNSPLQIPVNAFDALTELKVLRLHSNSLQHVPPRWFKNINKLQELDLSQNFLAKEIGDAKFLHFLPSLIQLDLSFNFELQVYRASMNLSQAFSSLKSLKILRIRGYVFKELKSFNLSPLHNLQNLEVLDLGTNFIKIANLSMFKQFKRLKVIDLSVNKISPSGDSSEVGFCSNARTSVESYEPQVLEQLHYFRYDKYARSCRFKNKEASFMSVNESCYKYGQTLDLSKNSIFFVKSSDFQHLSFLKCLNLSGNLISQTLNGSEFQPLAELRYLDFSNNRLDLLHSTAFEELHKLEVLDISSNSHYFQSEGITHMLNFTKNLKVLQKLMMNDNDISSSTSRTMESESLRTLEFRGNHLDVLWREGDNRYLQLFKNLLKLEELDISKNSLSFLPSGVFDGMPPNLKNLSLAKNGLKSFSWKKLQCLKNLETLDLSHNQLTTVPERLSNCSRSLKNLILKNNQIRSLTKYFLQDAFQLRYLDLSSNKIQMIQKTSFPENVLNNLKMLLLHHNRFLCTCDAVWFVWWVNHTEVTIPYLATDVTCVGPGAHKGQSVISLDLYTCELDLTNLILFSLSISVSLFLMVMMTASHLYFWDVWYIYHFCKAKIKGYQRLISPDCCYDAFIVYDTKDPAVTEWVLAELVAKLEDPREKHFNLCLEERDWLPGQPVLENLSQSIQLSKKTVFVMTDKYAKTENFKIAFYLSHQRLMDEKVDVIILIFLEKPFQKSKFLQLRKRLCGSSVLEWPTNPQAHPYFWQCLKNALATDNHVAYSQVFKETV
Briefly: Activation of hTLR7 in HEK-Blue hTLR7 stably transfected cells. It counts as cell-based. The note with it: OD 620 nm, 6-16 hours. The method, then:
The activation effect of the compound of the present application on the hTLR7 protein expressed in HEK-Blue™ hTLR7 stably transfected cells and hTLR8 protein expressed in HEK-Blue™ hTLR8 stably transfected cells were determined by the following experimental method:
The HEK-Blue assay medium was configured, HEK-Blue test dry powder was taken and 50 mL deendotoxin water were added to dissolve, then the resulting mixture was placed into the 37° C. incubator, and then filtered aseptically 10 minutes later. […]
The above-prepared compound was diluted 20-fold with a medium, and then 20 μL of the diluted compound were added to each well. HEK-Blue™ hTLR7 cells and HEK-Blue™ hTLR8 cells were taken separately, and the supernatant was removed first, then 2-5 mL pre-warmed PBS was added, placed in an incubator for 1-2 minutes, and the cells were gently pipetted, stained with trypan blue and counted. […]
The microplate reader reads at a wavelength of 620 nm. The corresponding OD value was obtained, and the EC50 value of the drug was calculated by Graphpad Prism. The activation effect of the compound of the present application and the control compound (prepared by the method of embodiment 21 of WO2016023511) on human TLR7 and TLR8 were determined by the above test, and the measured EC50 values were as shown in Table 1.

The target in a further assay is T2, hERG potassium channels (Homo sapiens, UniProt Q12809).
T2 construct: expressed in transfected cells
T2 sequence (Q12809 whole entry): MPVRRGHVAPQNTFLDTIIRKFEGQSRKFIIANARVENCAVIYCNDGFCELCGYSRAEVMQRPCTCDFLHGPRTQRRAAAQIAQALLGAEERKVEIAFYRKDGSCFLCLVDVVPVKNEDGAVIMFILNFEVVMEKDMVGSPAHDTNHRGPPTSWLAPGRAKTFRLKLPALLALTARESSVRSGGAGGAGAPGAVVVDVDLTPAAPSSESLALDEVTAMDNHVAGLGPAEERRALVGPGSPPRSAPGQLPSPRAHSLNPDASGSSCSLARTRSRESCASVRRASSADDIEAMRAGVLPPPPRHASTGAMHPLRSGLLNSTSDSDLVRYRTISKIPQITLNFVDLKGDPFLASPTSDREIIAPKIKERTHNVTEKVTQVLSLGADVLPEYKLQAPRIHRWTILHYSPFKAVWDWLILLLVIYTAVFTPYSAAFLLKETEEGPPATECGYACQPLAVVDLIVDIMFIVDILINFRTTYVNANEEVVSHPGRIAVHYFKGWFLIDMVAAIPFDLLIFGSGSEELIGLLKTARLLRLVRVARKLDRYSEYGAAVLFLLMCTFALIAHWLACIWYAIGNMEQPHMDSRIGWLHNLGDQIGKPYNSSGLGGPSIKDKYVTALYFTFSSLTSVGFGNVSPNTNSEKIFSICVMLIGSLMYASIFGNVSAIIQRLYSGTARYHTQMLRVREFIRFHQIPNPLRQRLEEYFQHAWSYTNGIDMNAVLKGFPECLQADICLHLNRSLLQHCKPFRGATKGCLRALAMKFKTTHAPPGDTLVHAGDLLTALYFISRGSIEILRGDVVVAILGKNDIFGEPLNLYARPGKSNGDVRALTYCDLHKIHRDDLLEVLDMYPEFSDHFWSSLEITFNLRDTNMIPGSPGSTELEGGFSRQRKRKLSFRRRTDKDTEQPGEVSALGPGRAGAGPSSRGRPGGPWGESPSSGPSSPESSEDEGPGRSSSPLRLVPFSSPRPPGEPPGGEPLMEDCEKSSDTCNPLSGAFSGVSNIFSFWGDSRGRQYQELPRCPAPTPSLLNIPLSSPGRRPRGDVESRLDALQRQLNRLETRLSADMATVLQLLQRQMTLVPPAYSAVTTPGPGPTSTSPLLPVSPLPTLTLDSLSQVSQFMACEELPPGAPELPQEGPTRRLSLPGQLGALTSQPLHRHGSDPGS
Kind of assay: Blocking effect on hERG potassium current, automatic patch-clamp, HEK293-hERG stable cell line. The class given is cell-based. The method, then:
The blocking effect of the compound of the present application on hERG potassium current was tested using an automatic patch-clamp on a stable cell line transfected with hERG potassium channels.
The HEK293-hERG stable cell line was subcultured at a density of 1:4 in MEM/EBSS medium (10% FBS, 400 μg/mL G418, 1% MEM non-essential amino acid solution (100×), 1% sodium pyruvate solution) and cultured within 48-72 hours for automatic patch-clamp experiments. On the day of the experiment, the cells were digested with 0.25% trypsin, collected by centrifugation and resuspended with extracellular fluid (140 mM NaCl, 4 mM KCl, 1 mM MgCl2, 2 mM CaCl2, 5 mM MD glucose monohydrate, 10 mM Hepes, pH 7.4, 298 mOsmol) to give a cell suspension. […] The currents at each concentration of the compound and the blank control current were analyzed by HEAK Patchmaster, HEAK EPC 10 patch clamp amplifiers (Nanion) and Pathlinersoftware and data analysis software provided by Pathcontrol HTsoftware.
Blocking effect of the compound of the present application on hERG potassium current was determined by the above experimental method, and the IC50 values were as shown in Table 5.
On the technique in general: hERG is a cardiac potassium channel; its block is linked to QT prolongation.

Regarding `CCCCOc1nc(N)c2[nH]nc(Cc3ccc(CN4CCCC4)cc3)c2n1` [Embodiment 1, 5-Butoxy-3-(4-(pyrrolidin-1-ylmethyl)benzyl)-1H-pyrazolo[4,3-d]pyrimidin-7-amine], a half-maximal response on human TLR7 (EC50) required 53 nM. This molecule yielded an IC50 against hERG potassium channels of over 30000 nM.
`CCCCOc1nc(N)c2[nH]cc(Cc3ccc(CN4CCCC4)cc3)c2n1` [Embodiment 21 of WO2016023511] gave an EC50 on human TLR7 of 243 nM. For the same molecule, it took 3600 nM to reach half-maximal inhibition at hERG potassium channels (IC50).

Usually EC50 stands for the concentration at which the effect is half-maximal. As usually defined, the IC50 is the concentration that gives 50% inhibition. The low end stands for higher potency, the high end for lower potency.
